Test results as given in patent US9434711B2 (Janssen Pharmaceutica, NV, priority 2007, dated 2016).
Where two headings read alike, the source gives them in different places.

Target: canine TRPM8 (Canis lupus familiaris, UniProt Q1A7N1)
Test: In Vitro Canine TRPM8 Functional Assay (Ca2+ fluorescence, icilin activation)
Format: cell-based
Conditions: for inhibition at 0.5 µM / % Inh @ 0.5 (μM): compound at 0.5 μM; for inhibition at 0.5 µM: read-out: % Inh @ 0.5
Method: The functional activity of compounds of the formula (I) was determined by measuring changes in intracellular calcium concentration using a Ca^2+-sensitive fluorescent dye. The changes in fluorescent signal were monitored by a fluorescence plate reader, either a FLIPR™ (Molecular Devices) or FDSS (Hamamatsu).
At 24 hrs prior to assay, HEK293 cells stably expressing canine TRPM8 were seeded in culture medium in black wall, clear-base poly-D-lysine coated 384-well plates (BD Biosciences, NJ, USA) and grown overnight in 5% CO2 at 37° C. On assay day, growth media was removed and cells were loaded with Calcium 3 Dye (Molecular Devices) for 35 min at 37° C., under 5% CO2 and then for 25 min at room temperature and atmosphere. Subsequently, cells were tested for agonist-induced increases in intracellular Ca^2+ levels using FLIPR™ or FDSS. Cells were challenged with a compound of the Formula (I) (at varying concentrations) and intracellular Ca^2+ was measured for 5 min prior to the addition of icilin to all wells to achieve a final concentration that produces approximately an 80% maximal response. EC50 or IC50 values for compounds of the present invention were determined from eight-point dose-response studies. Curves were generated using the average of quadruplicate wells for each data point.

[1] = HEK293 cells stably expressing canine TRPM8, icilin activation, eight-point dose-response, read-out: IC50
[2] = canine TRPM8, icilin activation
[3] = compound at 0.2 μM, canine TRPM8, icilin activation, read-out: % Inh @ 0.2

canine TRPM8, sequence (Q1A7N1 1-1104): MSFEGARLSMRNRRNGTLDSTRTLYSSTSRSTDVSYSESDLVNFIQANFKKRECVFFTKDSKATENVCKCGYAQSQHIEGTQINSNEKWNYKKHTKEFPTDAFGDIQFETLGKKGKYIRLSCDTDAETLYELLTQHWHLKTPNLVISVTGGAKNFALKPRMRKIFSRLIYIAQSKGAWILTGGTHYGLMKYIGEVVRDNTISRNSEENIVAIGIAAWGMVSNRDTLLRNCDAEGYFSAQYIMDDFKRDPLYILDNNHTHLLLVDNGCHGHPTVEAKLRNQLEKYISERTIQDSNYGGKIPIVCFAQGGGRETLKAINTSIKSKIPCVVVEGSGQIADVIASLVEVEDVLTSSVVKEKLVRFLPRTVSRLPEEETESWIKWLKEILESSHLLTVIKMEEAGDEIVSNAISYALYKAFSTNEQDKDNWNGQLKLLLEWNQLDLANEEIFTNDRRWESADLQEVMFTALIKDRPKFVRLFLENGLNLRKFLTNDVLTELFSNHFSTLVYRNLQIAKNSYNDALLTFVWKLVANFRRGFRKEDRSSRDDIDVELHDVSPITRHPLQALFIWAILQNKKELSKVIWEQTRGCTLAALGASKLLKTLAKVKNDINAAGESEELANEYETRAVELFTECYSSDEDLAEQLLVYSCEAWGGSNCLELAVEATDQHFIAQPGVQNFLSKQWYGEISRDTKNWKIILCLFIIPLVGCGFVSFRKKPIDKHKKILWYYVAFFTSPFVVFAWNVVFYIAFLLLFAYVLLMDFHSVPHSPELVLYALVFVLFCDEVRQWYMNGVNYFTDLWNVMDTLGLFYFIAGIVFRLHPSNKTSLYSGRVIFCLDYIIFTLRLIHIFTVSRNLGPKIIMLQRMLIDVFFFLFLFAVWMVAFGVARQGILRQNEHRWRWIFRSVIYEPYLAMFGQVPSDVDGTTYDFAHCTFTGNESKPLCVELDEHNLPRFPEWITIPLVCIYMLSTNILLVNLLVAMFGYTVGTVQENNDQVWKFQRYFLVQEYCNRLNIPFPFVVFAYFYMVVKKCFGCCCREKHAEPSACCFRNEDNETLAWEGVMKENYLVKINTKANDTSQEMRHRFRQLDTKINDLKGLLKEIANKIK

| Compound | IC50 [1] [µM] | inhibition at 0.5 µM [2] [%] | also measured |
| --- | --- | --- | --- |
| Cc1c(N(Cc2ccc(F)c(C(F)(F)F)c2)S(=O)(=O)c2cccnc2)sc2ccccc12 [Compound 39, N-(4-Fluoro-3-trifluoromethyl-benzyl)-N-(3-methyl-benzo[b]thiophen-2-yl)-pyridine-3-sulfonamide] | 0.0039 | 101 | – |
| CCS(=O)(=O)N(Cc1ccc(F)c(C(F)(F)F)c1)c1sc2ccccc2c1C [Compound 40, N-(4-Fluoro-3-trifluoromethyl-benzyl)-N-(3-methyl-benzo[b]thiophen-2-yl)-ethanesulfonamide] | 0.0137 | 97 | – |
| CCS(=O)(=O)N(Cc1ccc(F)c(F)c1)c1sc2ccccc2c1C [Compound 41, N-(3,4-Difluoro-benzyl)-N-(3-methyl-benzo[b]thiophen-2-yl)-ethanesulfonamide] | 0.0054 | 99 | – |
| CCS(=O)(=O)N(Cc1ccc(F)c(C(F)(F)F)c1)c1cc2ccccc2s1 [Compound 43, N-(Benzo[b]thiophen-2-yl)-N-(4-fluoro-3-trifluoromethyl-benzyl)-ethanesulfonamide] | 0.025 | 94 | – |
| Cc1c(N(Cc2ccc(F)c(F)c2)S(=O)(=O)N(C)C)sc2ccccc12 [Compound 44, N-(3,4-Difluoro-benzyl)-N-(3-methyl-benzo[b]thiophen-2-yl)-N′,N′-dimethylsulfamide] | 0.007 | 98 | – |
| CS(=O)(=O)N(Cc1ccc(F)c(C(F)(F)F)c1)c1cc2ccccc2s1 [Compound 45, N-(Benzo[b]thiophen-2-yl)-N-(4-fluoro-3-trifluoromethyl-benzyl)-methanesulfonamide] | 0.052 | – | inhibition at 0.2 µM [3]: 97% |
| O=S(=O)(c1ccccc1)N(Cc1ccc(Cl)cc1)c1cc2ccccc2s1 [Compound 46, N-(Benzo[b]thiophen-2-yl)-N-(4-chloro-benzyl)-benzenesulfonamide] | 0.084 | 99 | – |
| COc1ccccc1CN(c1cc2ccccc2s1)S(=O)(=O)c1ccccc1 [Compound 47, N-(Benzo[b]thiophen-2-yl)-N-(2-methoxy-benzyl)-benzenesulfonamide] | 0.112 | 97 | – |
| COc1cccc(CN(c2cc3ccccc3s2)S(=O)(=O)c2ccccc2)c1 [Compound 48, N-(Benzo[b]thiophen-2-yl)-N-(3-methoxy-benzyl)-benzenesulfonamide] | 0.079 | 98 | – |
| COc1ccc(CN(c2cc3ccccc3s2)S(=O)(=O)c2ccccc2)cc1 [Compound 49, N-(Benzo[b]thiophen-2-yl)-N-(4-methoxy-benzyl)-benzenesulfonamide] | 0.17 | 90 | – |
| O=S(=O)(c1ccccc1)N(Cc1ccccc1F)c1cc2ccccc2s1 [Compound 50, N-(Benzo[b]thiophen-2-yl)-N-(2-fluoro-benzyl)-benzenesulfonamide] | 0.066 | 99 | – |
| O=S(=O)(c1ccccc1)N(Cc1ccccc1OC(F)(F)F)c1cc2ccccc2s1 [Compound 56, N-(Benzo[b]thiophen-2-yl)-N-(2-trifluoromethoxy-benzyl)-benzenesulfonamide] | 0.103 | 99 | – |
| O=S(=O)(c1ccccc1)N(Cc1ccccc1)c1cc2ccccc2s1 [Compound 59, N-(Benzo[b]thiophen-2-yl)-N-(benzyl)-benzenesulfonamide] | 0.0445 | 98 | – |
| COc1cc(CN(c2cc3ccccc3s2)S(=O)(=O)c2ccccc2)ccc1F [Compound 60, N-(Benzo[b]thiophen-2-yl)-N-(4-fluoro-3-methoxy-benzyl)-benzenesulfonamide] | 0.0283 | 97 | – |
| Cc1ccccc1CN(c1cc2ccccc2s1)S(=O)(=O)c1ccccc1 [Compound 62] | 0.0581 | – | % Inh @ 0.5 (μM) [2]: 98% |
| Cc1cccc(CN(c2cc3ccccc3s2)S(=O)(=O)c2ccccc2)c1 [Compound 63] | 0.074 | – | % Inh @ 0.5 (μM) [2]: 98% |
| Cc1c(N(Cc2ccc(F)c(C(F)(F)F)c2)S(=O)(=O)c2ccc3ncsc3c2)sc2ccccc12 [Compound 65, N-(4-Fluoro-3-trifluoromethyl-benzyl)-N-(3-methyl-benzo[b]thiophen-2-yl)-benzothiazole-6-sulfonamide] | 0.017 | – | inhibition at 0.2 µM [3]: 97% |
| Cc1c(N(Cc2ccc(F)c(C(F)(F)F)c2)S(=O)(=O)c2ccc3c(c2)OCCN3C)sc2ccccc12 [Compound 68, N-(4-Fluoro-3-trifluoromethyl-benzyl)-N-(3-methyl-benzo[b]thiophen-2-yl)-4-methyl-3,4-dihydro-2H-benzo[1,4]oxazine-7-sulfonamide] | 0.002 | – | inhibition at 0.2 µM [3]: 99% |
| COC(=O)CCS(=O)(=O)N(Cc1ccc(F)c(C(F)(F)F)c1)c1sc2ccccc2c1C [Compound 71] | – | – | IC50: 0.018 µM; inhibition at 0.2 µM (read-out: % Inh @ 0.2 (μM)): 98% |

More lines, main results first:

| IC50 [1] [µM] | inhibition at 0.5 µM [2] [%] | Compound | also measured |
| --- | --- | --- | --- |
| 0.0106 | 100 | CCS(=O)(=O)N(Cc1ccc(OC(F)(F)F)cc1)c1sc2ccccc2c1C [Compound 42, N-(3-Methyl-benzo[b]thiophen-2-yl)-N-(4-trifluoromethoxy-benzyl)-ethanesulfonamide] | – |
| 0.078 | 98 | O=[N+]([O-])c1cccc(CN(c2cc3ccccc3s2)S(=O)(=O)c2ccccc2)c1 [Compound 51, N-(Benzo[b]thiophen-2-yl)-N-(3-nitro-benzyl)-benzenesulfonamide] | – |
| 0.116 | 99 | O=S(=O)(c1ccccc1)N(Cc1ccccn1)c1cc2ccccc2s1 [Compound 52, N-(Benzo[b]thiophen-2-yl)-N-(pyridin-2-ylmethyl)-benzenesulfonamide] | – |
| 0.164 | 97 | O=S(=O)(c1ccccc1)N(Cc1cccnc1)c1cc2ccccc2s1 [Compound 53, N-(Benzo[b]thiophen-2-yl)-N-(pyridin-3-ylmethyl)-benzenesulfonamide] | – |
| – | 65 | O=S(=O)(c1ccccc1)N(Cc1ccncc1)c1cc2ccccc2s1 [Compound 54, N-(Benzo[b]thiophen-2-yl)-N-(pyridin-4-ylmethyl)-benzenesulfonamide] | – |
| 0.0655 | 99 | O=[N+]([O-])c1ccccc1CN(c1cc2ccccc2s1)S(=O)(=O)c1ccccc1 [Compound 55, N-(Benzo[b]thiophen-2-yl)-N-(2-nitro-benzyl)-benzenesulfonamide] | – |
| 0.108 | 100 | O=S(=O)(c1ccccc1)N(Cc1cccc(OC(F)(F)F)c1)c1cc2ccccc2s1 [Compound 57, N-(Benzo[b]thiophen-2-yl)-N-(3-trifluoromethoxy-benzyl)-benzenesulfonamide] | – |
| 0.0455 | 98 | O=S(=O)(c1ccccc1)N(Cc1ccc(OC(F)(F)F)cc1)c1cc2ccccc2s1 [Compound 58, N-(Benzo[b]thiophen-2-yl)-N-(4-trifluoromethoxy-benzyl)-benzenesulfonamide] | – |
| 0.0524 | 95 | O=S(=O)(c1ccccc1)N(Cc1ccc(F)c(C(F)(F)F)c1)c1cc2ccccc2s1 [Compound 61, N-(Benzo[b]thiophen-2-yl)-N-(4-fluoro-3-trifluoromethyl-benzyl)-benzenesulfonamide] | – |
| 0.019 | – | COc1ccc(S(=O)(=O)N(Cc2ccc(F)c(C(F)(F)F)c2)c2sc3ccccc3c2C)cc1F [Compound 64, N-(4-Fluoro-3-trifluoromethyl-benzyl)-N-(3-methyl-benzo[b]thiophen-2-yl)-3-fluoro-4-methoxybenzenesulfonamide] | inhibition at 0.2 µM [3]: 96% |
| 0.004 | – | Cc1c(N(Cc2ccc(F)c(C(F)(F)F)c2)S(=O)(=O)c2ccc3[nH]c(=O)oc3c2)sc2ccccc12 [Compound 66, N-(4-Fluoro-3-trifluoromethyl-benzyl)-N-(3-methyl-benzo[b]thiophen-2-yl)-2-oxo-2,3-dihydro-benzooxazole-6-sulfonamide] | inhibition at 0.2 µM [3]: 96% |
| 0.055 | – | Cc1c(N(Cc2ccc(F)c(C(F)(F)F)c2)S(=O)(=O)c2ccc3c(c2)NC(=O)CO3)sc2ccccc12 [Compound 67] | % Inh @ 0.2 (μM) (compound at 0.2 μM, canine TRPM8, icilin activation): 77% |
| 0.003 | – | Cc1c(N(Cc2ccc(F)c(C(F)(F)F)c2)S(=O)(=O)c2ccc(-c3csnn3)cc2)sc2ccccc12 [Compound 69, N-(4-Fluoro-3-trifluoromethyl-benzyl)-N-(3-methyl-benzo[b]thiophen-2-yl)-4-[1,2,3]thiadiazol-4-yl-benzenesulfonamide] | inhibition at 0.2 µM [3]: 96% |
| 0.007 | – | Cc1c(N(Cc2ccc(F)c(C(F)(F)F)c2)S(=O)(=O)c2cccc(Oc3ccccc3)c2)sc2ccccc12 [Compound 70, N-(4-Fluoro-3-trifluoromethyl-benzyl)-N-(3-methyl-benzo[b]thiophen-2-yl)-3-phenoxy-benzenesulfonamide] | inhibition at 0.2 µM [3]: 99% |
| 0.026 | – | Cc1nc(O)nc(O)c1S(=O)(=O)N(Cc1ccc(F)c(C(F)(F)F)c1)c1sc2ccccc2c1C [Compound 72, N-(3-Methyl-benzo[b]thiophen-2-yl)-N-(4-fluoro-3-trifluoromethylbenzyl)-(2,4-dihydroxy-6-methyl-pyrimidine-5-yl)sulfonamide] | inhibition at 0.2 µM [3]: 99% |
